Test results published in patent publication US20180002288A1, “USE OF PICOLINAMIDES AS FUNGICIDES” (DOW AGROSCIENCES LLC, priority 2014, published 2018).
Read-outs that look alike come from different tables or passages of the source.

Assays:
Zymoseptoria tritici = experiment: Leaf Blotch of Wheat fungicidal activity (SEPTTR); assay type: in vivo; conditions: Low Volume Cereal Activity at 121.5 g/Ha
Puccinia triticina = experiment: Wheat Brown Rust fungicidal activity (PUCCRT); assay type: in vivo; conditions: Low Volume Cereal Activity at 121.5 g/Ha
Venturia inaequalis = experiment: Apple Scab fungicidal activity (VENTIN); assay type: in vivo; conditions: 24 h, high volume, 1 Day Protectant, read-out: VENTIN % Control rating
Protocol: All fungicides were evaluated using the aforementioned method for their activity vs. all target diseases, unless stated otherwise. Wheat leaf blotch and brown rust activity were also evaluated using track spray applications, in which case the fungicides were formulated as EC formulations, containing 0.1% Trycol 5941 in the spray solutions. Wheat plants (variety Yuma) were grown from seed in a greenhouse in 50% mineral soil/50% soil-less Metro mix until the first leaf was fully emerged, with 7-10 seedlings per pot. These plants were inoculated with an aqueous spore suspension of Zymoseptoria tritici either prior to or after fungicide treatments. After inoculation the plants were kept in 100% relative humidity (one day in a dark dew chamber followed by two to three days in a lighted dew chamber at 20° C.) to permit spores to germinate and infect the leaf. The plants were then transferred to a greenhouse set at 20° C. for disease to develop. When disease symptoms were fully expressed on the 1st leaves of untreated plants, infection levels were assessed on a scale of 0 to 100 percent disease severity. Percent disease control was calculated using the ratio of disease severity on treated plants relative to untreated plants. […] Seedlings with two expanding young leaves at the top (older leaves at bottom of the plants were trimmed) were used in the test. Plants were inoculated with a spore suspension of Venturia inaequalis 24 hr after fungicide treatment and kept in a 22° C. dew chamber with 100% relative humidity for 48 hr, and then moved to a greenhouse set at 20° C. for disease to develop. Fungicide formulation, application and disease assessment on the sprayed leaves followed the procedures as described in the Example A.

Cercospora beticola = experiment: Leaf Spot of Sugar Beets fungicidal activity (CERCBE); assay type: in vivo; conditions: 24 h, sugar beet, high volume, 1 Day Protectant, read-out: CERCBE % Control rating
Protocol: All fungicides were evaluated using the aforementioned method for their activity vs. all target diseases, unless stated otherwise. Wheat leaf blotch and brown rust activity were also evaluated using track spray applications, in which case the fungicides were formulated as EC formulations, containing 0.1% Trycol 5941 in the spray solutions. Wheat plants (variety Yuma) were grown from seed in a greenhouse in 50% mineral soil/50% soil-less Metro mix until the first leaf was fully emerged, with 7-10 seedlings per pot. These plants were inoculated with an aqueous spore suspension of Zymoseptoria tritici either prior to or after fungicide treatments. After inoculation the plants were kept in 100% relative humidity (one day in a dark dew chamber followed by two to three days in a lighted dew chamber at 20° C.) to permit spores to germinate and infect the leaf. The plants were then transferred to a greenhouse set at 20° C. for disease to develop. When disease symptoms were fully expressed on the 1st leaves of untreated plants, infection levels were assessed on a scale of 0 to 100 percent disease severity. Percent disease control was calculated using the ratio of disease severity on treated plants relative to untreated plants. Sugar beet plants (variety HH88) were grown in soil-less Metro mix and trimmed regularly to maintain a uniform plant size prior to test. Plants were inoculated with a spore suspension 24 hr after fungicide treatments. Inoculated plants were kept in a dew chamber at 22° C. for 48 hr then incubated in a greenhouse set at 24° C. under a clear plastic hood with bottom ventilation until disease symptoms were fully expressed. Fungicide formulation, application and disease assessment on the sprayed leaves followed the procedures as described in the Example A.

Alternaria solani = experiment: Tomato Early Blight fungicidal activity (ALTESO); assay type: in vivo; conditions: 24 h, high volume, 1 Day Protectant, read-out: ALTESO % Control rating
Protocol: All fungicides were evaluated using the aforementioned method for their activity vs. all target diseases, unless stated otherwise. Wheat leaf blotch and brown rust activity were also evaluated using track spray applications, in which case the fungicides were formulated as EC formulations, containing 0.1% Trycol 5941 in the spray solutions. Wheat plants (variety Yuma) were grown from seed in a greenhouse in 50% mineral soil/50% soil-less Metro mix until the first leaf was fully emerged, with 7-10 seedlings per pot. These plants were inoculated with an aqueous spore suspension of Zymoseptoria tritici either prior to or after fungicide treatments. After inoculation the plants were kept in 100% relative humidity (one day in a dark dew chamber followed by two to three days in a lighted dew chamber at 20° C.) to permit spores to germinate and infect the leaf. The plants were then transferred to a greenhouse set at 20° C. for disease to develop. When disease symptoms were fully expressed on the 1st leaves of untreated plants, infection levels were assessed on a scale of 0 to 100 percent disease severity. Percent disease control was calculated using the ratio of disease severity on treated plants relative to untreated plants. Tomato plants (variety Outdoor Girl) were propagated in soil-less Metro mix, with each pot having one plant, and used when 12 to 14 days old. Test plants were inoculated with an aqueous spore suspension of Alternaria solani 24 hr after fungicide treatments. After inoculation the plants were kept in a dew room at 22° C. with 100% relative humidity for 48 hr to permit spores to germinate and infect the leaf. The plants were then transferred to a growth room at 22° C. for disease to develop. Fungicide formulation, application and disease assessment on the sprayed leaves followed the procedures as described in the Example A.

Phakopsora pachyrhizi = experiment: Asian Soybean Rust fungicidal activity (PHAKPA); conditions: Phakopsora pachyrhizi, in Glycine max
[1] = 24 h, 1 Day Protectant, read-out: SEPTTR 1DP (Wheat Leaf Blotch, 1 Day Protectant)
[2] = 72 h, 3 Day Curative, read-out: SEPTTR 3DC (Wheat Leaf Blotch, 3 Day Curative)
[3] = 24 h, 1 Day Protectant, read-out: PUCCRT 1DP (Wheat Brown Rust, 1 Day Protectant)
[4] = 72 h, 3 Day Curative, read-out: PUCCRT 3DC (Wheat Brown Rust, 3 Day Curative)
[5] = 24 h, read-out: PHAKPA 1DP % Control rating, soybean, high volume, 25 ppm, 1 Day Protectant
[6] = 72 h, read-out: PHAKPA 3DC % Control rating, soybean, high volume, 25 ppm, 3 Day Curative

Compound | pest or weed control at 121.5 g/ha (Zymoseptoria tritici; [1]) [%] | pest or weed control at 121.5 g/ha (Zymoseptoria tritici; [2]) [%] | pest or weed control at 121.5 g/ha (Puccinia triticina; [3]) [%] | pest or weed control at 121.5 g/ha (Puccinia triticina; [4]) [%] | pest or weed control at 100 ppm (Venturia inaequalis) [%] | pest or weed control at 100 ppm (Cercospora beticola) [%] | pest or weed control at 100 ppm (Alternaria solani) [%] | pest or weed control at 25 ppm (Phakopsora pachyrhizi; [5]) [%] | pest or weed control at 25 ppm (Phakopsora pachyrhizi; [6]) [%]
COc1ccnc(C(=O)N[C@@H](C)C(=O)O[C@H](C)[C@@H](Oc2ccccc2)c2ccccc2)c1OCOC(C)=O [Example 185] | > 80 | > 80 | > 80 | > 80 | < 80 | < 80 | < 80 | < 80 | < 0
COc1ccnc(C(=O)N[C@H](C)C(=O)O[C@H](C)[C@@H](Oc2ccccc2)c2ccccc2)c1OCOC(C)=O [Example 186] | < 80 | < 80 | < 0 | < 0 | < 80 | < 80 | < 80 | < 0 | < 0
COc1ccnc(C(=O)N[C@@H](C)C(=O)O[C@@H](C)[C@H](Oc2cccc(F)c2)c2ccccc2)c1OC(C)=O [Example 188] | > 80 | > 80 | > 80 | > 80 |  |  |  | > 80 | < 80
COc1ccnc(C(=O)N[C@@H](C)C(=O)O[C@@H](C)[C@H](Oc2ccccc2)c2ccc(C)cc2F)c1OCOC(C)=O [Example 261] | > 80 | > 80 | > 80 | > 80 |  |  |  | > 80 | < 0
COc1cc(F)ccc1[C@@H](Oc1ccc(C)cc1)[C@H](C)OC(=O)[C@H](C)NC(=O)c1nccc(OC)c1OC(C)=O [Example 271] | > 80 | > 80 | > 80 | < 0 |  |  |  | < 80 | < 80
COc1ccnc(C(=O)N[C@@H](C)C(=O)O[C@@H](C)[C@H](Oc2ccccc2)c2ccc(F)cc2OCC(F)F)c1OC(C)=O [Example 273] | > 80 | > 80 | > 80 | > 80 |  |  |  | < 80 | < 0
COc1cc(F)ccc1[C@@H](OCC1CC1)[C@H](C)OC(=O)[C@H](C)NC(=O)c1nccc(OC)c1OC(C)=O [Example 295] | > 80 | > 80 | > 80 | < 80 |  |  |  | > 80 | < 80
COc1ccnc(C(=O)N[C@@H](C)C(=O)O[C@@H](C)[C@H](Oc2ccccc2Cl)c2ccccc2)c1OCOC(C)=O [Example 204] | < 80 | > 80 | > 80 | > 80 |  |  |  | > 80 | < 80
COc1ccnc(C(=O)N[C@@H](C)C(=O)O[C@@H](C)[C@@H](OC)c2ccccc2)c1OCOC(C)=O [Example 230] | < 0 | > 80 | > 80 | > 80 |  |  |  | < 80 | < 80
CCCOc1cc(F)ccc1[C@@H](Oc1ccccc1)[C@H](C)OC(=O)[C@H](C)NC(=O)c1nccc(OC)c1OC(C)=O [Example 268] | > 80 | > 80 | > 80 | > 80 |  |  |  | < 80 | < 80
COc1ccnc(C(=O)N[C@@H](C)C(=O)O[C@@H](C)[C@H](Oc2ccccc2)c2ccc(F)cc2Oc2ccccc2)c1OC(C)=O [Example 275] | > 80 | < 80 | > 80 | > 80 |  |  |  | < 80 | < 0
COc1ccnc(C(=O)N[C@@H](C)C(=O)O[C@@H](C)[C@H](Oc2ccccc2)c2ccc(F)cc2OC(C)=O)c1OC(C)=O [Example 267] | > 80 | < 80 | < 80 | < 0 |  |  |  | < 80 | < 80
